Measured values from the supplement of paper PMC10307832.

Key:
Assay in all cases: relative viability (nuclei count vs DMSO), 5 days (fraction); higher = more cells survive
[1] = test system: NCI-H661
Summary of the method: (§1)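 Five library-drug doses in √10 steps were combined with a fixed anchor-drug dose, or a single drug was given alone, by pin tool to lung cancer cell lines in 1536-well plates the day after seeding. Nuclei were stained and counted after 5 days. Relative viability is the nuclei count in treated wells over that in vehicle wells, taken as the median of duplicate plates.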

[2] = test system: LCLC-97TM1
Summary of the method: as §1

[3] = test system: NCI-H1915
Summary of the method: as §1

[4] = test system: NCI-H1993
Summary of the method: as §1

[5] = test system: PC-3 [JPC-3]
Summary of the method: as §1

[6] = test system: NCI-H2009
Summary of the method: as §1

[7] = test system: NCI-H441
Summary of the method: as §1

[8] = test system: NCI-H1437
Summary of the method: as §1

[9] = test system: COR-L 105
Summary of the method: as §1

[10] = test system: CAL-12T
Summary of the method: as §1

[11] = test system: A-427
Summary of the method: as §1

[12] = test system: NCI-H2347
Summary of the method: as §1

[13] = test system: NCI-H520
Summary of the method: as §1

[14] = test system: NCI-H2023
Summary of the method: as §1

[15] = test system: NCI-H838
Summary of the method: as §1

[16] = test system: NCI-H522
Summary of the method: as §1

[17] = test system: NCI-H2342
Summary of the method: as §1

[18] = test system: COR-L23
Summary of the method: as §1

[19] = test system: LXF-289
Summary of the method: as §1

[20] = test system: HOP-62
Summary of the method: as §1

[21] = test system: NCI-H460
Summary of the method: as §1

[22] = test system: NCI-H1651
Summary of the method: as §1

Structure (SMILES): C=C1C(=O)O[C@@H](CCCCCCCC)[C@@H]1C(=O)O [C-75] + Nc1nc2[nH]cc(CCc3ccc(C(=O)N[C@@H](CCC(=O)O)C(=O)O)cc3)c2c(=O)[nH]1 [Pemetrexed] (partner 0.2 µM)
- relative viability ([1]; first compound 0.08 µM): 0.919
- relative viability ([1]; first compound 0.253 µM): 0.925
- relative viability ([1]; first compound 0.8 µM): 0.856
- relative viability ([1]; first compound 2.53 µM): 0.783
- relative viability ([1]; first compound 8 µM): 0.881
- relative viability ([2]; first compound 0.08 µM): 0.197
- relative viability ([2]; first compound 0.253 µM): 0.195
- relative viability ([2]; first compound 0.8 µM): 0.177
- relative viability ([2]; first compound 2.53 µM): 0.129
- relative viability ([2]; first compound 8 µM): 0.145
- relative viability ([3]; first compound 0.08 µM): 0.471
- relative viability ([3]; first compound 0.253 µM): 0.475
- relative viability ([3]; first compound 0.8 µM): 0.483
- relative viability ([3]; first compound 2.53 µM): 0.448
- relative viability ([3]; first compound 8 µM): 0.527
- relative viability ([4]; first compound 0.08 µM): 0.564
- relative viability ([4]; first compound 0.253 µM): 0.716
- relative viability ([4]; first compound 0.8 µM): 0.541
- relative viability ([4]; first compound 2.53 µM): 0.652
- relative viability ([4]; first compound 8 µM): 0.478
- relative viability ([5]; first compound 0.08 µM): 1.07
- relative viability ([5]; first compound 0.253 µM): 0.979
- relative viability ([5]; first compound 0.8 µM): 0.81
- relative viability ([5]; first compound 2.53 µM): 0.874
- relative viability ([5]; first compound 8 µM): 1.14
- relative viability ([6]; first compound 0.08 µM): 1.12
- relative viability ([6]; first compound 0.253 µM): 0.924
- relative viability ([6]; first compound 0.8 µM): 0.947
- relative viability ([6]; first compound 2.53 µM): 0.886
- relative viability ([6]; first compound 8 µM): 0.975
- relative viability ([7]; first compound 0.08 µM): 0.295
- relative viability ([7]; first compound 0.253 µM): 0.278
- relative viability ([7]; first compound 0.8 µM): 0.283
- relative viability ([7]; first compound 8 µM): 0.263
- relative viability ([8]; first compound 0.08 µM): 0.314
- relative viability ([8]; first compound 0.253 µM): 0.324
- relative viability ([8]; first compound 0.8 µM): 0.321
- relative viability ([8]; first compound 8 µM): 0.269
- relative viability ([9]; first compound 0.08 µM): 1.14
- relative viability ([9]; first compound 0.253 µM): 1.07
- relative viability ([9]; first compound 0.8 µM): 1.07
- relative viability ([9]; first compound 2.53 µM): 1.24
- relative viability ([9]; first compound 8 µM): 0.96
- relative viability ([10]; first compound 0.08 µM): 1.37
- relative viability ([10]; first compound 0.253 µM): 1.45
- relative viability ([10]; first compound 0.8 µM): 1.11
- relative viability ([10]; first compound 2.53 µM): 1.05
- relative viability ([10]; first compound 8 µM): 1.27
- relative viability ([11]; first compound 0.08 µM): 0.949
- relative viability ([11]; first compound 0.253 µM): 0.774
- relative viability ([11]; first compound 0.8 µM): 0.813
- relative viability ([11]; first compound 2.53 µM): 0.71
- relative viability ([11]; first compound 8 µM): 0.871
- relative viability ([12]; first compound 0.08 µM): 0.402
- relative viability ([12]; first compound 0.253 µM): 0.388
- relative viability ([12]; first compound 0.8 µM): 0.442
- relative viability ([12]; first compound 2.53 µM): 0.447
- relative viability ([12]; first compound 8 µM): 0.48
- relative viability ([13]; first compound 0.08 µM): 0.62
- relative viability ([13]; first compound 0.253 µM): 0.669
- relative viability ([13]; first compound 0.8 µM): 0.643
- relative viability ([13]; first compound 2.53 µM): 0.578
- relative viability ([13]; first compound 8 µM): 0.55
- relative viability ([14]; first compound 0.08 µM): 0.246
- relative viability ([14]; first compound 0.253 µM): 0.265
- relative viability ([14]; first compound 0.8 µM): 0.242
- relative viability ([14]; first compound 2.53 µM): 0.171
- relative viability ([14]; first compound 8 µM): 0.21
- relative viability ([15]; first compound 0.08 µM): 0.224
- relative viability ([15]; first compound 0.253 µM): 0.265
- relative viability ([15]; first compound 0.8 µM): 0.262
- relative viability ([15]; first compound 2.53 µM): 0.18
- relative viability ([15]; first compound 8 µM): 0.239
- relative viability ([16]; first compound 0.08 µM): 1.02
- relative viability ([16]; first compound 0.253 µM): 0.76
- relative viability ([16]; first compound 0.8 µM): 0.828
- relative viability ([16]; first compound 2.53 µM): 0.869
- relative viability ([16]; first compound 8 µM): 0.879
- relative viability ([17]; first compound 0.08 µM): 0.815
- relative viability ([17]; first compound 0.253 µM): 0.771
- relative viability ([17]; first compound 0.8 µM): 0.693
- relative viability ([17]; first compound 2.53 µM): 0.62
- relative viability ([17]; first compound 8 µM): 0.766
- relative viability ([18]; first compound 0.08 µM): 0.197
- relative viability ([18]; first compound 0.253 µM): 0.197
- relative viability ([18]; first compound 0.8 µM): 0.2
- relative viability ([18]; first compound 2.53 µM): 0.2
- relative viability ([18]; first compound 8 µM): 0.198
- relative viability ([19]; first compound 0.08 µM): 0.834
- relative viability ([19]; first compound 0.253 µM): 0.906
- relative viability ([19]; first compound 0.8 µM): 0.858
- relative viability ([19]; first compound 2.53 µM): 0.886
- relative viability ([19]; first compound 8 µM): 0.904
- relative viability ([20]; first compound 0.08 µM): 0.365
- relative viability ([20]; first compound 0.253 µM): 0.306
- relative viability ([20]; first compound 0.8 µM): 0.291
- relative viability ([20]; first compound 2.53 µM): 0.268
- relative viability ([20]; first compound 8 µM): 0.311
- relative viability ([21]; first compound 0.08 µM): 0.0548
- relative viability ([21]; first compound 0.253 µM): 0.0554
- relative viability ([21]; first compound 0.8 µM): 0.0669
- relative viability ([21]; first compound 2.53 µM): 0.0313
- relative viability ([21]; first compound 8 µM): 0.0571
- relative viability ([22]; first compound 0.08 µM): 0.568
- relative viability ([22]; first compound 0.253 µM): 0.671
- relative viability ([22]; first compound 0.8 µM): 0.541
- relative viability ([22]; first compound 2.53 µM): 0.53
- relative viability ([22]; first compound 8 µM): 0.606
